Article PMC4900566, “Pharmacokinetic-Pharmacodynamic Analysis on Inflammation Rat Model after Oral Administration of Huang Lian Jie Du Decoction” (PLoS ONE, 2016)
Where two headings read alike, the source gives them in different places.

Experiments:
[1] = Hepatic first-pass effect / hepatic clearance rate (jugular vs pyloric vein AUC0-t) in inflamed rats; type: in vivo, Sprague-Dawley rats; conditions: inflamed rats (G5, n = 5), oral HLJDD; HCR% = 100×(AUC0−t pyloric vein − AUC0−t jugular vein)/AUC0−t pyloric vein
Procedure: (§1) For the PK-PD analysis, cannulas were implanted in each rat’s jugular vein (n = 22). To study the hepatic first-pass effect (HFPE), the jugular vein and the pyloric vein of each rat (n = 5) were cannulated according to the method described by Hye J. Chung et al. with slight modifications. Instead of the portal vein, the pyloric vein was cannulated to minimize the interference of blood flow in the portal vein [41]. The surgery was performed under anesthesia (3% chloral hydrate solution, intraperitoneal injection; 3.5 mL/kg) 5 days prior to the experiment. Rats with jugular vein intubation surgery were divided into four groups: a control group with HLJDD (G1, n = 6), aninflammatory group with HLJDD (G2, n = 6), aninflammatory group with physiological saline (G3, n = 5) and another inflammatory group with HLJDD (G4, n = 5). G1 and G2 were used for the pharmacokinetic study, while G3 and G4 were used for the pharmacodynamic study. Rats with jugular and pyloric vein cannulation for HFPE analysis were assigned to another inflammatory group with HLJDD (G5, n = 5).
The prepared HLJDD-EP solution was administered to the rats (G1, G2, G4 and G5) at 2 mL/100g body weight (crude material content: 3.5 g/kg) by oral gavage, and the G3 group was given the same volume of physiological saline. In the G1 and G2 groups, blood specimens (300 μL) were obtained before dosing and subsequently at 5 min, 10 min, 30 min, 1, 2, 4, 6, 8, 12, 24, 36 and 48 h after the oral administration of HLJDD-EP solution. In the G3 and G4 groups, blood samples (300 μL) were collected prior to dosing and followed at 10 min, 30 min, 1, 2, 4, 8, 24 and 48 h after drug administration. The rectal temperature of rats in the G3 and G4 groups was immediately monitored after each collection of blood. For the HFPE assay, blood specimens (150 μL) from both the jugular vein and the pyloric vein of the G5 rats were simultaneously taken before dosing and subsequently at 5 min, 10 min, 30 min, 1, 2, 4, 6, 8, 12, 24, 36 and 48 h after oral administration. Samples were collected in heparinized Eppendorf tubes and centrifuged at 3000 rpm for 15 min. The plasma was stored at -80°C until assay.
For the pharmacokinetic investigation and HFPE analysis, 100 μL aliquots of plasma were mixed with 5 μL of ascorbic acid (dissolved in physiological saline, w/v: 1 g/100 mL) and 200 μL of methanol (containing an internal standard stock solution with 80.0 ng/mL swertiamarin, 1.5 ng/mL corynoline and 33.0 ng/mL icariin), followed by vortexing and centrifuging at 15000 rpm for 20 min to remove the precipitate. The supernatant was dried with nitrogen at 40°C. […] The supernatant was analyzed using Agilent 1290 ultra-high performance liquid chromatography coupled with an Agilent 6490 Triple Quadrupole Mass Spectrometer (Agilent Technologies, Palo Alto, CA, USA).
Pharmacokinetic parameters of the determined compounds were processed by the non-compartmental method using Phoenix Winnonlin software (Pharsight Corporation, USA). […] The mean residence time (MRT) was determined as AUMC/AUC. The plasma half-life (HLλz), maximum plasma concentration (Cmax), the time to reach Cmax (Tmax) and other parameters following the administration of HLJDD were determined from the observed data. […] Concentrations of cytokines were analyzed by cytometric bead array software (FCAP Array version 3.0, BD Bioscience). All the data were expressed as the mean±standard deviation (SD). […]

[2] = Pharmacokinetics of HLJDD components in rat plasma after oral administration of HLJDD (LC-QqQ-MS, non-compartmental); type: in vivo, Sprague-Dawley rats; conditions: oral HLJDD extract; for AUC%Extrap / AUMClast / Cmax1 / Cmax2 / HLλz / Tmax1 / Tmax2 / AUC(0-inf) / AUC(0-t) / MRT last / CL/F / Vd/F / AUCinf / AUClast / MRTlast / Vz/F: crude material 3.5 g/kg, plasma, n = 6; for Vd/F: read-out: Vz/F
Procedure: The rats were acclimatized to the facilities for 5 days and screened via the continuous determination of the rectal temperature for two days. […] The control group G1 was injected with the same volume of physiological saline. The ethics committees of Cisco North Biotechnology Co., Ltd. (Beijing, China) and the China Academy of Chinese Medical Sciences (Beijing, China) approved the experimental protocol.
as §1
The prepared HLJDD-EP solution was administered to the rats (G1, G2, G4 and G5) at 2 mL/100g body weight (crude material content: 3.5 g/kg) by oral gavage, and the G3 group was given the same volume of physiological saline. […] The rectal temperature of rats in the G3 and G4 groups was immediately monitored after each collection of blood. […] Samples were collected in heparinized Eppendorf tubes and centrifuged at 3000 rpm for 15 min. The plasma was stored at -80°C until assay.
The supernatant was dried with nitrogen at 40°C. The residue was re-dissolved in 100 μL of methanol and centrifuged at 15000 rpm for 10 min.
Liquid chromatographic separations of the analytes were performed using a Thermo Scientific Hypersil GOLD column (50 mm× 2.1 mm, 1.9 μm). The mobile phase consisted of acetonitrile (solvent A) and 0.1% formic acid in water (solvent B). […] The flow rate was 0.3 mL/min. The injection volume was 2 μL. […] The optimized ESI source parameters were as follows: gas temperature, 200°C; gas flow, 14 L/min; nebulizer pressure, 20 psi; sheath gas temperature, 400°C; and sheath gas flow, 11 L/min. Analytes were quantitated by monitoring the precursor-product combination in the DMRM mode using ion polarity switching (flavonoids and alkaloids were determined in the positive mode, while iridoids were detected in the negative mode). To ensure the desired abundance of each compound, the CE values and other parameters were optimized and illustrated as follows: cycle time, 300 ms; positive capillary voltage, 3000 v; negative capillary voltage, 2000 v; positive nozzle voltage, 1500 v; negative nozzle voltage, 1000 v; Delta EMV(+), 200 v; Delta EMV(-), 200 v. The optimized mass transition ion pairs (m/z) for analytes and the detection of the conditions of the compounds are shown in S1 Table.
Pharmacokinetic parameters of the determined compounds were processed by the non-compartmental method using Phoenix Winnonlin software (Pharsight Corporation, USA). Linear trapezoidal integration was used to calculate areas under the concentration-time curves (AUC) and areas under the first moment curves (AUMC). The mean residence time (MRT) was determined as AUMC/AUC. The plasma half-life (HLλz), maximum plasma concentration (Cmax), the time to reach Cmax (Tmax) and other parameters following the administration of HLJDD were determined from the observed data. The HFPE was defined as HCR: HCR% = 100×(AUC0−t in the pyloric vein-AUC0−t in the jugular vein)/AUC0−t in the pyloric vein.

[3] = male, Sprague-Dawley, rat, po, 3.5 g/kg, inflamed rats (group M)
[4] = male, Sprague-Dawley, rat, po, 3.5 g/kg, normal rats (group B)

## COc1cc(O[C@@H]2O[C@H](C(=O)O)[C@@H](O)[C@H](O)[C@H]2O)c2c(=O)cc(-c3ccccc3)oc2c1O[C@@H]1O[C@H](C(=O)O)[C@@H](O)[C@H](O)[C@H]1O [F4, 5,8-dihyroxy-7-methoxy flavone-5,8-di-O-glucuronide]
[1]
  hepatic clearance rate (HCR): approximately zero

## COc1cc(O)c2c(=O)cc(-c3ccccc3)oc2c1O[C@@H]1O[C@H](C(=O)O)[C@@H](O)[C@H](O)[C@H]1O [F7, 5,8-dihyroxy-7-methoxy flavone-8-O-glucuronide]
[1]
  hepatic clearance rate (HCR): approximately zero

## COC(=O)C1=CO[C@@H](O[C@@H]2O[C@H](CO)[C@@H](O)[C@H](O)[C@H]2O)[C@H]2[C@@H]1C=C[C@@]2(O)CO [I1, gardenoside]
[1]
  hepatic clearance rate (HCR): -43.7%

## COC(=O)C1=CO[C@@H](O[C@@H]2O[C@H](CO)[C@@H](O)[C@H](O)[C@H]2O)[C@@H]2C(CO)=C[C@@H](O)[C@H]12 [I2, scandoside methyl ester]
[1]
  hepatic clearance rate (HCR): approximately zero

## COC(=O)C1=CO[C@@H](O[C@@H]2O[C@H](CO[C@@H]3O[C@H](CO)[C@@H](O)[C@H](O)[C@H]3O)[C@@H](O)[C@H](O)[C@H]2O)[C@@H]2C(CO)=CC[C@H]12 [I3, genipin-1-gentiobioside]
[1]
  hepatic clearance rate (HCR): -156.6%

## COc1c(O)cc(O)c2c(=O)cc(-c3ccccc3)oc12 [wogonin]
[2]; inflamed rats (group M)
  AUC%Extrap: 1.3±0.7%
  AUMClast: 442.5±232.9 h*h*ng/ml
  Cmax1: 3.3 ± 0.7 ng/mL
  Cmax2: 4.3 ± 1.8 ng/mL
  HLλz: 7.1 ± 2.7 h
  Tmax1: 4.8 ± 0 min
  Tmax2: 7.3 ± 2.7 h
[2]; inflamed vs normal rats
  mean AUClast, fold larger in the inflamed group than in the control group: 5.4 fold
[2]; [3]
  AUC(0-inf): 39.2 ± 8 ng·h/mL
  AUC(0-t): 38.7 ± 8.1 ng·h/mL
  MRT last: 11 ± 3.5 h
  Vd/F: 1710 ± 667 L/kg
[2]; male, Sprague-Dawley, rat, po, 3.5 g/kg, inflamed rats (group M), read-out: CL/F (converted)
  CL/F: 2740 mL/min/kg
[2]; [4]
  AUC(0-inf): 7.4 ± 2.6 ng·h/mL
  AUC(0-t): 7.2 ± 2.6 ng·h/mL
  MRT last: 4.3 ± 0.8 h
  Vd/F: 4010 ± 1350 L/kg
[2]; normal rats (group B)
  AUC%Extrap: 2.7±2.3%
  AUMClast: 31.8±14.3 h*h*ng/ml
  Cmax1: 2.2 ± 1.2 ng/mL
  Cmax2: 1.6 ± 0.7 ng/mL
  HLλz: 3.5 ± 1.3 h
  Tmax1: 5.4 ± 1.8 min
  Tmax2: 4.0 ± 0.0 h

## COc1c(O[C@@H]2O[C@H](C(=O)O)[C@@H](O)[C@H](O)[C@H]2O)cc(O)c2c(=O)cc(-c3ccccc3)oc12 [wogonoside]
[2]; inflamed rats (group M)
  AUC%Extrap: 17.3±13.8%
  AUCinf: 8380.9 ± 1944.5 ng·h/mL
  AUClast: 6870.4 ± 1786.5 ng·h/mL
  AUMClast: 92756.1±44786.8 h*h*ng/ml
  CL/F: 190 ± 45 mL/min/kg
  Cmax1: 571.9 ± 183.4 ng/mL
  Cmax2: 323.9 ± 52.5 ng/mL
  HLλz: 12.2 ± 5.9 h
  MRTlast: 12.9 ± 3.0 h
  Tmax1: 9.6 ± 4.8 min
  Tmax2: 8.7 ± 3.0 h
  Vz/F: 188.6 ± 72.3 L/kg
[2]; normal rats (group B)
  AUC%Extrap: 9.6±6.6%
  AUCinf: 3615.4 ± 872.3 ng·h/mL
  AUClast: 3302.3 ± 975.1 ng·h/mL
  AUMClast: 15357.0±3545.6 h*h*ng/ml
  CL/F: 442 ± 117 mL/min/kg
  Cmax1: 492.9 ± 152.9 ng/mL
  Cmax2: 517.7 ± 173.8 ng/mL
  HLλz: 3.0 ± 1.0 h
  MRTlast: 4.7 ± 0.5 h
  Tmax1: 6.6 ± 2.4 min
  Tmax2: 4.3 ± 0.8 h
  Vz/F: 118.7 ± 58.0 L/kg
